In US7482379B2, “Propenoyl hydrazides” (priority 2004, dated 2009):
Like-named read-outs stand apart in the source and are kept apart here.

Key:
S. mansoni legumain = S. mansoni legumain (Schistosoma mansoni, UniProt P09841, N192C); experiment: S. mansoni legumain (SmAE) inhibition assay; assay type: biochemical; conditions: for kinact/KI: read-out: kobs/[I]
Experimental: Studies with the propenoyl hydrazides using the schistosome legumain […], (Schistosoma mansoni asparaginyl endopeptidase) were also performed. […] The actual active site enzyme concentration is unknown. The lyophilized enzyme ([…]) was reconstituted in 1.5 mL 0.5 M sodium acetate, pH 4.5 containing 4 mM DTT, and left to stand at 37° C. for 3-4 hours to allow for auto-activation of the zymogen. In a black 96-well microtiter plate, 50 μL of activated enzyme was added to an equal volume of 0.1 M citrate-phosphate buffer pH 6.8 containing 4 mM DTT. Inhibitor stock solutions (20 mM) were prepared in DMSO. Serial dilutions (using water) of inhibitor were added (as 1 μL aliquots) to yield concentrations of between 2 and 0.00002 μM inhibitor. […] After incubating various inhibitor concentrations with enzyme, 100 μL of the same buffer containing 20 μM substrate (Cbz-Ala-Ala-Asn-AMC) was added to the wells and the reaction monitored at room temperature with linear kinetics up to 20 minutes. Inhibitors are tested in duplicate. A plot of the RFU/min versus the inhibitor concentration [μM] permitted calculation of an IC50 value and estimation of the kobs/[I].

Caspase-7 = target: T1, Caspase-7 (Homo sapiens, UniProt P55210); experiment: Caspase-7 progress curve inhibition assay; conditions: second-order rate constant; Ac-DEVD-AMC substrate; Pipes buffer pH 7.2
T1 sequence (P55210 24-198 limits assumed): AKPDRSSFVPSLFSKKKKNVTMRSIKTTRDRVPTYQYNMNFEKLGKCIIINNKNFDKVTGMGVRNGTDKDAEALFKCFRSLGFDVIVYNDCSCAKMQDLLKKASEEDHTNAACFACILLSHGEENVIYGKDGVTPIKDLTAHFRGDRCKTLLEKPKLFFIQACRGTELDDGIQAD
T1 sequence (P55210 207-303 limits assumed): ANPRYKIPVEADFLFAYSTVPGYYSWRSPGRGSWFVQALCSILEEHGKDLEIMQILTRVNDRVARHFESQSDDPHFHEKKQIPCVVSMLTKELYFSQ

[1] = S. mansoni legumain, 20 min preincubation, Cbz-Ala-Ala-Asn-AMC substrate

S. mansoni legumain, sequence (P09841 32-291 N192C): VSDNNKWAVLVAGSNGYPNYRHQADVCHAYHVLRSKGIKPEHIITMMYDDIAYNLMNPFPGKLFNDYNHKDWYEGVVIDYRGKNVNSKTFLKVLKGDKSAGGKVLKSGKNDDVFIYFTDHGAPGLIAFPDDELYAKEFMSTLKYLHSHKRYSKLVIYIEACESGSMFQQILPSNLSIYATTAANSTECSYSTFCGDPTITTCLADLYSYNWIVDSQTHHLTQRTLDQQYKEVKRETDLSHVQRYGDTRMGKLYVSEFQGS

SMILES | IC50 (S. mansoni legumain) | further results
C[C@H](NC(=O)OCc1ccccc1)C(=O)N[C@@H](C)C(=O)NN(CC(N)=O)C(=O)/C=C/C(=O)N(Cc1ccccc1)Cc1ccc2ccccc2c1 | 70 nM | kinact/KI (S. mansoni legumain): 6100 M⁻¹ s⁻¹
C[C@H](NC(=O)OCc1ccccc1)C(=O)N[C@@H](C)C(=O)NN(CC(N)=O)C(=O)/C=C/C(=O)N1CCCc2ccccc21 (relative stereo) [N^2—(N-Benzyloxycarbonylalanylalanyl)-N^1-carbamoylmethyl-N^1-trans-(3-(3,4-dihydro-2H-quinolin-1-yloxo)propenoyl)hydrazine] | – | IC50 (S. mansoni legumain; S. mansoni legumain, 20 min preincubation, Cbz-Ala-Ala-Asn-AMC substrate, read-out: IC50): 200 nM
C/C=C/C=C/C(=O)N(CC(=O)O)NC(=O)[C@@H](NC(=O)OCc1ccccc1)C(C)C (stereo in doubt) [Cbz-Val-AAsp-CH═CH—CH═CH—CH3, N^2—(N-Benzyloxyearbonylvalyl)-N^1-carboxymethyl-N^1-trans-(hexa-2,4-dienoyl)hydrazine] | – | k2 Caspase-7 (Caspase-7): 56 M⁻¹ s⁻¹
CCOC(=O)C=CC(=O)N(CC(N)=O)NC(=O)C(C)NC(=O)C(C)NC(=O)CCCCC1SCC2NC(=O)NC21 (stereo not drawn) [Biotinyl-Ala-Ala-AAsn-CH═CH—COOEt] | 10 nM | –
C[C@H](NC(=O)OCc1ccccc1)C(=O)N[C@@H](C)C(=O)NN(CC(N)=O)C(=O)/C=C/c1ccco1 [Cbz-Ala-Ala-AAsn-CH═CH-2-furyl, N^2—(N-Benzyloxycarbonylalanylalanyl)-N^1-carbamoylmethyl-N^1-trans-(3-(2-furyl)propenoyl)hydrazine] | > 2000 nM | –
C[C@H](NC(=O)OCc1ccccc1)C(=O)N[C@@H](C)C(=O)NN(CC(N)=O)C(=O)/C=C/c1cccnc1 [Cbz-Ala-Ala-AAsn-CH═CH-3-Py, N^2—(N-Benzyloxycarbonylalanylalanyl)-N^1-carbamoylmethyl-N^1-trans-(3-(3-pyridyl)propenoyl)hydrazine] | > 2000 nM | –
CC=CC=CC(=O)N(CC(N)=O)NC(=O)C(C)NC(=O)C(C)NC(=O)OCc1ccccc1 (stereo not drawn) [Cbz-Ala-Ala-AAsn-CH═CHCH═CHCH3, N^2—(N-Benzyloxycarbonylalanylalanyl)-N^1-carbamoylmethyl-N^1-trans-trans-hexa-2,4-dienoylhydrazine] | – | IC50 (S. mansoni legumain; [1]): > 2000 nM
C[C@H](NC(=O)OCc1ccccc1)C(=O)N[C@@H](C)C(=O)NN(CC(N)=O)C(=O)/C=C/C(=O)N1CC=C(c2ccccc2)CC1 [Cbz-Ala-Ala-AAsn-CH═CH—CO-(4-Ph-Py), N^2—(N-Benzyloxycarbonylalanylalanyl)-N^1-carbamoylmethyl-N^1-trans-(3-(4-phenyl-5,6-dihydro-2H-pyridin-1-yloxo)propenoyl)hydrazine] | 750 nM | –
C[C@H](NC(=O)OCc1ccccc1)C(=O)N[C@@H](C)C(=O)NN(CC(N)=O)C(=O)/C=C/C(=O)N1CCCCC1 [Cbz-Ala-Ala-AAsn-CH═CH—CO-Pip, N^2—(N-Benzyloxycarbonylalanylalanyl)-N^1-carbamoylmethyl-N^1-trans-(3-(1-piperidyloxo)propenoyl)hydrazine] | 1000 nM | –
C[C@H](NC(=O)OCc1ccccc1)C(=O)N[C@@H](C)C(=O)NN(CC(N)=O)C(=O)/C=C/C(=O)N1Cc2ccccc2C1 [Cbz-Ala-Ala-AAsn-CH═CH—CO-isoindoline, N^2—(N-Benzyloxycarbonylalanylalanyl)-N^1-carbamoylmethyl-N^1-trans-(3-(1,3-dihydroisoindol-2-yloxo)propenoyl)hydrazine] | 300 nM | –
C[C@H](NC(=O)OCc1ccccc1)C(=O)N[C@@H](C)C(=O)NN(CC(N)=O)C(=O)/C=C/C(=O)N(Cc1ccccc1)c1ccccc1 [Cbz-Ala-Ala-AAsn-CH═CH—CON(Bzl)Ph, N^2—(N-Benzyloxycarbonylalanylalanyl)-N^1-carbamoylmethyl-N^1-trans-(3-phenylbenzylcarbamoylpropenoyl)hydrazine] | 70 nM | –
C[C@H](NC(=O)OCc1ccccc1)C(=O)N[C@@H](C)C(=O)NN(CC(N)=O)C(=O)/C=C/C(=O)N(Cc1ccccc1)Cc1ccc(F)cc1 [Cbz-Ala-Ala-AAsn-CH═CH—CON(Bzl-4-F)Bzl, N^2—(N-Benzyloxycarbonylalanylalanyl)-N^1-trans-(3-benzyl(4-fluorobenzyl)carbamoylpropenoyl)-N^1-carbamoylmethylhydrazine] | 60 nM | –
COc1ccc(CN(Cc2ccccc2)C(=O)/C=C/C(=O)N(CC(N)=O)NC(=O)[C@H](C)NC(=O)[C@H](C)NC(=O)OCc2ccccc2)cc1 [Cbz-Ala-Ala-AAsn-CH═CH—CON(Bzl-4-OMe)Bzl, N^2—(N-Benzyloxycarbonylalanylalanyl)-N^1-trans-(3-benzyl-(4-methoxybenzyl)carbamoyl)propenoyl-N^1-carbamoylmethylhydrazine] | 90 nM | –
C[C@H](NC(=O)OCc1ccccc1)C(=O)N[C@@H](C)C(=O)NN(CC(N)=O)C(=O)/C=C/C(=O)N(Cc1ccco1)Cc1ccco1 [Cbz-Ala-Ala-AAsn-CH═CH—CON(CH2-2-furyl)2, N^2—(N-Benzyloxycarbonylalanylalanyl)-N^1-carbamoylmethyl-N^1-trans-(3-bis-(2-furylmethyl)carbamoylpropenoyl)hydrazine] | 900 nM | –
C[C@H](NC(=O)OCc1ccccc1)C(=O)N[C@@H](C)C(=O)NN(CC(N)=O)C(=O)/C=C/C(=O)N(C)CCc1ccccc1 [Cbz-Ala-Ala-AAsn-CH═CH—CON(CH3)CH2CH2Ph, N^2—(N-Benzyloxycarbonylalanylalanyl)-N^1-carbamoylmethyl-N^1-trans-(3-(Methylphenethylcarbamoyl)propenoyl)hydrazine] | 600 nM | –
C[C@H](NC(=O)OCc1ccccc1)C(=O)N[C@@H](C)C(=O)NN(CC(N)=O)C(=O)/C=C/C(=O)N(C)c1ccccc1 [Cbz-Ala-Ala-AAsn-CH═CH—CON(CH3)Ph, N^2—(N-Benzyloxycarbonylalanylalanyl)-N^1-carbamoylmethyl-N^1-trans-(3-(methylphenylcarbamoyl)propenoyl)hydrazine] | 60 nM | –
CCCCN(CCCC)C(=O)/C=C/C(=O)N(CC(N)=O)NC(=O)[C@H](C)NC(=O)[C@H](C)NC(=O)OCc1ccccc1 [Cbz-Ala-Ala-AAsn-CH═CH—CON(nBu)2, N^2—(N-Benzyloxycarbonylalanylalanyl)-N^1-carbamoylmethyl-N^1-trans-(3-dibutylcarbamoylpropenoyl)hydrazine] | 550 nM | –
CCN(CC)C(=O)/C=C/C(=O)N(CC(N)=O)NC(=O)[C@H](C)NC(=O)[C@H](C)NC(=O)OCc1ccccc1 [Cbz-Ala-Ala-AAsn-CH═CH—CONEt2, N^2—(N-Benzyloxycarbonylalanylalanyl)-N^1-carbamoylmethyl-N^1-trans-(3-diethylcarbamoylpropenoyl)hydrazine] | – | IC50 (S. mansoni legumain; [1]): > 2000 nM
C[C@H](NC(=O)OCc1ccccc1)C(=O)N[C@@H](C)C(=O)NN(CC(N)=O)C(=O)/C=C/C(=O)NCc1ccc(F)cc1 [Cbz-Ala-Ala-AAsn-CH═CH—CONH-Bzl-4-F, N^2—(N-Benzyloxycarbonylalanylalanyl)-N^1-carbamoylmethyl-N^1-trans-(3-(4-fluorobenzyl)carbamoylpropenoyl)hydrazine] | 800 nM | –
C[C@H](NC(=O)OCc1ccccc1)C(=O)N[C@@H](C)C(=O)NN(CC(N)=O)C(=O)/C=C/C(=O)NCc1ccccc1 [Cbz-Ala-Ala-AAsn-CH═CH—CONHBzl, N^2—(N-Benzyloxycarbonylalanylalanyl)-N^1-carbamoylmethyl-N^1-trans-(3-benzylcarbamoylpropenoyl)hydrazine] | 1000 nM | –
C[C@H](NC(=O)OCc1ccccc1)C(=O)N[C@@H](C)C(=O)NN(CC(N)=O)C(=O)/C=C/C(=O)Nc1ccccc1 [Cbz-Ala-Ala-AAsn-CH═CH—CONHPh, N^2—(N-Benzyloxycarbonylalanylalanyl)-N^1-carbamoylmethyl-N^1-trans-(3-phenylcarbamoylpropenoyl)hydrazine] | 700 nM | –
C[C@H](NC(=O)OCc1ccccc1)C(=O)N[C@@H](C)C(=O)NN(CC(N)=O)C(=O)/C=C/C(=O)c1ccccc1 [Cbz-Ala-Ala-AAsn-CH═CH—COPh, trans-N^2—(N-Benzyloxycarbonylalanylalanyl)-N^1-carbamoyImethyl-N^1-trans-(3-benzoylpropenoyl)hydrazine] | – | IC50 (S. mansoni legumain; [1]): does not inhibit; IC50 (S. mansoni legumain; S. mansoni legumain, 20 min preincubation, Cbz-Ala-Ala-Asn-AMC substrate, listed as —COPh): > 2000 nM
C[C@H](NC(=O)OCc1ccccc1)C(=O)N[C@@H](C)C(=O)NN(CC(N)=O)C(=O)/C=C/C(=O)N1CCCc2ccccc21 [N^2—(N-Benzyloxycarbonylalanylalanyl)-N^1-carbamoylmethyl-N^1-trans-(3-(3,4-dihydro-2H-quinolin-1-yloxo)propenoyl)hydrazine] | 70 nM | –
C[C@H](NC(=O)OCc1ccccc1)C(=O)N[C@@H](C)C(=O)NN(CC(N)=O)C(=O)/C=C/C(=O)N(C)Cc1cccc2ccccc12 [N^2—(N-Benzyloxycarbonylalanylalanyl)-N^1-carbamoylmethyl-N^1-trans-(3-(methyl-1-naphthylmethylcarbamoyl)propenoyl)hydrazine] | 35 nM | kinact/KI (S. mansoni legumain): 16900 M⁻¹ s⁻¹
